Measured values reported in PubChem BioAssay AID2060905 (Molecular Pharmacology Branch, DTP, NCI, 2025).

Tested on: 282377-053-R-J1-PDC complex spheroid viability
Assay: Anticancer human tumor 282377-053-R-J1-PDC patient-derived colon adenocarcinoma cell line growth inhibition [RAS]
Settings: for IC50: curve of first compound; for viability, T/C: stronger effect = lower value
How it was run: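 Tumour cells grown as complex spheroids with HUVEC endothelial cells and mesenchymal stem cells, treated with RAS pathway inhibitor combinations. Each agent spans half-log steps from near clinical Cmax, or 10 microM where Cmax is unknown.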

[1] = second compound 0.000949 µM, first compound 0.0316 µM
[2] = second compound 0.000949 µM, first compound 0.1 µM
[3] = second compound 0.000949 µM, first compound 0.316 µM
[4] = second compound 0.000949 µM, first compound 1 µM
[5] = second compound 0.000949 µM, first compound 3.16 µM
[6] = second compound 0.000949 µM, first compound 10 µM
[7] = second compound 0.003 µM, first compound 0.0316 µM
[8] = second compound 0.003 µM, first compound 0.1 µM
[9] = second compound 0.003 µM, first compound 0.316 µM
[10] = second compound 0.003 µM, first compound 1 µM
[11] = second compound 0.003 µM, first compound 3.16 µM
[12] = second compound 0.003 µM, first compound 10 µM
[13] = second compound 0.00949 µM, first compound 0.0316 µM
[14] = second compound 0.00949 µM, first compound 0.1 µM
[15] = second compound 0.00949 µM, first compound 0.316 µM
[16] = second compound 0.00949 µM, first compound 1 µM
[17] = second compound 0.00949 µM, first compound 3.16 µM
[18] = second compound 0.00949 µM, first compound 10 µM
[19] = second compound 0.03 µM, first compound 0.0316 µM
[20] = second compound 0.03 µM, first compound 0.1 µM
[21] = second compound 0.03 µM, first compound 0.316 µM
[22] = second compound 0.03 µM, first compound 1 µM
[23] = second compound 0.03 µM, first compound 3.16 µM
[24] = second compound 0.03 µM, first compound 10 µM
[25] = second compound 0.0949 µM, first compound 0.0316 µM
[26] = second compound 0.0949 µM, first compound 0.1 µM
[27] = second compound 0.0949 µM, first compound 0.316 µM
[28] = second compound 0.0949 µM, first compound 1 µM
[29] = second compound 0.0949 µM, first compound 3.16 µM
[30] = second compound 0.0949 µM, first compound 10 µM
[31] = second compound 0.3 µM, first compound 0.0316 µM
[32] = second compound 0.3 µM, first compound 0.1 µM
[33] = second compound 0.3 µM, first compound 0.316 µM
[34] = second compound 0.3 µM, first compound 1 µM
[35] = second compound 0.3 µM, first compound 3.16 µM
[36] = second compound 0.3 µM, first compound 10 µM
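Also: spheroids exposed to agents for seven days before readout.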
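For viability, T/C in this document: luminescence viability as percent of DMSO vehicle control wells.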

Compound: CC(Nc1ccc2c(c1)OCCn1cc(N3C(=O)OCC3C(F)F)nc1-2)C(N)=O (stereo unspecified) + C#Cc1c(F)ccc2cc(O)cc(-c3ncc4c(N5CC6CCC(C5)N6)nc(OCC56CCCN5CC(F)C6)nc4c3F)c12
- IC50 (second compound 0.0316 µM): > 10 µM
- IC50 (second compound 0.1 µM): > 10 µM
- IC50 (second compound 0.316 µM): > 10 µM
- IC50 (second compound 1 µM): > 10 µM
- IC50 (second compound 3.16 µM): > 10 µM
- IC50 (second compound 10 µM): > 10 µM
- viability, T/C (second compound 0.0316 µM, first compound 0.0316 µM): 109%
- viability, T/C (second compound 0.0316 µM, first compound 0.1 µM): 84.6%
- viability, T/C (second compound 0.0316 µM, first compound 0.316 µM): 88.8%
- viability, T/C (second compound 0.0316 µM, first compound 1 µM): 96%
- viability, T/C (second compound 0.0316 µM, first compound 3.16 µM): 90.2%
- viability, T/C (second compound 0.0316 µM, first compound 10 µM): 72.8%
- viability, T/C (second compound 0.1 µM, first compound 0.0316 µM): 101%
- viability, T/C (second compound 0.1 µM, first compound 0.1 µM): 85.7%
- viability, T/C (second compound 0.1 µM, first compound 0.316 µM): 93.1%
- viability, T/C (second compound 0.1 µM, first compound 1 µM): 97.3%
- viability, T/C (second compound 0.1 µM, first compound 3.16 µM): 91.1%
- viability, T/C (second compound 0.1 µM, first compound 10 µM): 72.6%
- viability, T/C (second compound 0.316 µM, first compound 0.0316 µM): 131%
- viability, T/C (second compound 0.316 µM, first compound 0.1 µM): 92.7%
- viability, T/C (second compound 0.316 µM, first compound 0.316 µM): 78.2%
- viability, T/C (second compound 0.316 µM, first compound 1 µM): 104%
- viability, T/C (second compound 0.316 µM, first compound 3.16 µM): 74.7%
- viability, T/C (second compound 0.316 µM, first compound 10 µM): 96.1%
- viability, T/C (second compound 1 µM, first compound 0.0316 µM): 95.7%
- viability, T/C (second compound 1 µM, first compound 0.1 µM): 97.8%
- viability, T/C (second compound 1 µM, first compound 0.316 µM): 98.7%
- viability, T/C (second compound 1 µM, first compound 1 µM): 100%
- viability, T/C (second compound 1 µM, first compound 3.16 µM): 88.5%
- viability, T/C (second compound 1 µM, first compound 10 µM): 93.3%
- viability, T/C (second compound 3.16 µM, first compound 0.0316 µM): 90.5%
- viability, T/C (second compound 3.16 µM, first compound 0.1 µM): 88.8%
- viability, T/C (second compound 3.16 µM, first compound 0.316 µM): 88.3%
- viability, T/C (second compound 3.16 µM, first compound 1 µM): 77.5%
- viability, T/C (second compound 3.16 µM, first compound 3.16 µM): 76.6%
- viability, T/C (second compound 3.16 µM, first compound 10 µM): 76.9%
- viability, T/C (second compound 10 µM, first compound 0.0316 µM): 102%
- viability, T/C (second compound 10 µM, first compound 0.1 µM): 101%
- viability, T/C (second compound 10 µM, first compound 0.316 µM): 97%
- viability, T/C (second compound 10 µM, first compound 1 µM): 81.2%
- viability, T/C (second compound 10 µM, first compound 3.16 µM): 90%
- viability, T/C (second compound 10 µM, first compound 10 µM): 78.5%

Compound: CC1(O)CCCC1n1c(=O)c(C(F)F)cc2cnc(NC3CCN(S(C)(=O)=O)CC3)nc21 (stereo unspecified) + CCn1c(-c2cccnc2C(C)OC)c2c3cc(ccc31)N1CCOC(CC(NC(=O)C(C(C)C)N(C)C(=O)C3(F)CCN(C(=O)C#CC(C)(C)N(C)C)CC3)C(=O)N3CCCC(N3)C(=O)OCC(C)(C)C2)C1
- IC50 (second compound 0.000949 µM): 6.89 µM
- IC50 (second compound 0.003 µM): 7.15 µM
- IC50 (second compound 0.00949 µM): 7.05 µM
- IC50 (second compound 0.03 µM): 6.9 µM
- IC50 (second compound 0.0949 µM): 7.3 µM
- IC50 (second compound 0.3 µM): 6.87 µM
- viability, T/C [1]: 118%
- viability, T/C [2]: 112%
- viability, T/C [3]: 171%
- viability, T/C [4]: 144%
- viability, T/C [5]: 159%
- viability, T/C [6]: 6.67%
- viability, T/C [7]: 129%
- viability, T/C [8]: 128%
- viability, T/C [9]: 140%
- viability, T/C [10]: 131%
- viability, T/C [11]: 218%
- viability, T/C [12]: 8.84%
- viability, T/C [13]: 122%
- viability, T/C [14]: 97%
- viability, T/C [15]: 153%
- viability, T/C [16]: 156%
- viability, T/C [17]: 199%
- viability, T/C [18]: 8.76%
- viability, T/C [19]: 105%
- viability, T/C [20]: 111%
- viability, T/C [21]: 153%
- viability, T/C [22]: 159%
- viability, T/C [23]: 165%
- viability, T/C [24]: 7.79%
- viability, T/C [25]: 121%
- viability, T/C [26]: 120%
- viability, T/C [27]: 201%
- viability, T/C [28]: 181%
- viability, T/C [29]: 214%
- viability, T/C [30]: 5.91%
- viability, T/C [31]: 111%
- viability, T/C [32]: 129%
- viability, T/C [33]: 146%
- viability, T/C [34]: 155%
- viability, T/C [35]: 158%
- viability, T/C [36]: 6.46%

Compound: CCC(CC)c1cc(NC2CCC(N)C2)n2nccc2n1 (stereo unspecified) + CCn1c(-c2cc(N3CCN(C)CC3)cnc2C(C)OC)c2c3cc(ccc31)-c1csc(n1)CC(NC(=O)C1CC1C)C(=O)N1CCCC(N1)C(=O)OCC(C)(C)C2
- IC50 (second compound 0.000949 µM): 1.71 µM
- IC50 (second compound 0.003 µM): 1.48 µM
- IC50 (second compound 0.00949 µM): 1.72 µM
- IC50 (second compound 0.03 µM): 1.53 µM
- IC50 (second compound 0.0949 µM): 1.78 µM
- IC50 (second compound 0.3 µM): 1.8 µM
- viability, T/C [1]: 85.5%
- viability, T/C [2]: 98.8%
- viability, T/C [3]: 98.5%
- viability, T/C [4]: 84.1%
- viability, T/C [5]: 11.1%
- viability, T/C [6]: 6.68%
- viability, T/C [7]: 89.4%
- viability, T/C [8]: 86.5%
- viability, T/C [9]: 81.2%
- viability, T/C [10]: 70.5%
- viability, T/C [11]: 10.4%
- viability, T/C [12]: 3.1%
- viability, T/C [13]: 81.9%
- viability, T/C [14]: 95.3%
- viability, T/C [15]: 72%
- viability, T/C [16]: 90.7%
- viability, T/C [17]: 10.8%
- viability, T/C [18]: 4.36%
- viability, T/C [19]: 76%
- viability, T/C [20]: 82%
- viability, T/C [21]: 85.7%
- viability, T/C [22]: 71.2%
- viability, T/C [23]: 13.2%
- viability, T/C [24]: 7.45%
- viability, T/C [25]: 95.7%
- viability, T/C [26]: 87.2%
- viability, T/C [27]: 76.1%
- viability, T/C [28]: 88.6%
- viability, T/C [29]: 13%
- viability, T/C [30]: 2.75%
- viability, T/C [31]: 94.7%
- viability, T/C [32]: 78%
- viability, T/C [33]: 86.1%
- viability, T/C [34]: 94.9%
- viability, T/C [35]: 13.4%
- viability, T/C [36]: 3.35%
